Test results published in patent US20250024871A1, “AMIDE COMPOUNDS AND THEIR USE AS FLAVOR MODIFIERS” (Firmenich Incorporated, priority 2021, published 2025).

Target: T1, T1R umami taste receptor (Homo sapiens, UniProt Q7RTX0+Q7RTX1)
T1 sequence (Q7RTX1 21-841): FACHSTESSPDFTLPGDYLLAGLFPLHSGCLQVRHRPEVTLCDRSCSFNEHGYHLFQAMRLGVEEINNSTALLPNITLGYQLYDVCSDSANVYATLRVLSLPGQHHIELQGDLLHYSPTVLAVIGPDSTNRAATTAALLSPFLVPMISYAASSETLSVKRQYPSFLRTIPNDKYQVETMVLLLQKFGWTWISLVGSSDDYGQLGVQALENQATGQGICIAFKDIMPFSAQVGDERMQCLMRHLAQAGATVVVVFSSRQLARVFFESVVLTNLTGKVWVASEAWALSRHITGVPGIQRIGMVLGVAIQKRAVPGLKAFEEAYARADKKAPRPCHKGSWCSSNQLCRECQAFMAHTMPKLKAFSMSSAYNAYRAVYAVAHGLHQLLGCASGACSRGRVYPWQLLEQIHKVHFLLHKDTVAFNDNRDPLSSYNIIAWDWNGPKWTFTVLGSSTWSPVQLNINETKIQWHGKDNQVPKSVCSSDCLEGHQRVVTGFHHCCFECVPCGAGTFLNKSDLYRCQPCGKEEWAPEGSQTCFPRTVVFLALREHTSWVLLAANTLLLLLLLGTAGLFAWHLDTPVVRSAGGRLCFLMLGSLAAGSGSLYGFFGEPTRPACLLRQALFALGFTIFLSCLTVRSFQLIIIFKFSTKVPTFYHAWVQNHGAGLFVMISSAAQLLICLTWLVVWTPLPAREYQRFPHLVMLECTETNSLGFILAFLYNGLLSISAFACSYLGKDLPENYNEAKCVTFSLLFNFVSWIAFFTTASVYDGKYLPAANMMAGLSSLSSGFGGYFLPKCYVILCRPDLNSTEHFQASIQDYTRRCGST
T1 sequence (Q7RTX0 21-852): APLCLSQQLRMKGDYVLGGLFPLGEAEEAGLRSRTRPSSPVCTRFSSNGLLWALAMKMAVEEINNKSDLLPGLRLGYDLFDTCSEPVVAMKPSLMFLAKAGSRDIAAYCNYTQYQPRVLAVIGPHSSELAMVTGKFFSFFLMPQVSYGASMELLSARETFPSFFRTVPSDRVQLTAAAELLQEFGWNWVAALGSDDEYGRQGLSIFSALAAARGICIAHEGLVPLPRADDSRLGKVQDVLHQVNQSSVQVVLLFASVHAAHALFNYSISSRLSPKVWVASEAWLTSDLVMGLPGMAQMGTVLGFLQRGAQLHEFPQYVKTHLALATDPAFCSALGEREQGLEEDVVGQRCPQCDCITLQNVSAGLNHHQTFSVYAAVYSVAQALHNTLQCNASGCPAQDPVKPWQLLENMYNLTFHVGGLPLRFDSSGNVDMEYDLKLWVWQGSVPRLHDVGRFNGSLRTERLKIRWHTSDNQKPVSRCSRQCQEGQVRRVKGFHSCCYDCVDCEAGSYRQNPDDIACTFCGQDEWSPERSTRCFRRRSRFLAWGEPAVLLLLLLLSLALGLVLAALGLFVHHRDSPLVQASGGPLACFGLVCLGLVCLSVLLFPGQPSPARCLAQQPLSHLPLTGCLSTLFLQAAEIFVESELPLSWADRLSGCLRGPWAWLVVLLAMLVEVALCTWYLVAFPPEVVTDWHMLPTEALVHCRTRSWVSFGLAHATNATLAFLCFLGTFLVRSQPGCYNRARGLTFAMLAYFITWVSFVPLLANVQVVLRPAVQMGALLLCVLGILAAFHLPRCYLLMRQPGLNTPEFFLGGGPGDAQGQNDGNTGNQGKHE
Assay: in vitro cell-based assay having cells that express the T1R umami taste receptor (enhancement of MSG)
Conditions: for EC50: cells expressing T1R umami taste receptor, read-out: EC50 for enhancement of MSG binding
Protocol: Each of Compounds 101-183 was synthesized according to one of the general procedures set forth above in Examples 1. Thereafter, the compounds were tested in an in vitro cell-based assay having cells that express the T1R umami taste receptor. Dose-binding curves were recorded and the EC50 was determined for enhancement of MSG binding. Table 2 sets forth the calculated EC50 values for certain tested compounds as well as the MSG enhancement ratio at a particular concentration.

Compound | EC50 [µM] | MSG Enh. Ratio (compound at 50 μM) | other results
COC(=O)[C@H](Cc1ccccc1)NC(=O)/C=C/c1ccccc1OC [Compound 152, Methyl (E)-(3-(2-methoxyphenyl)acryloyl)-L-phenylalaninate] | 27 | – | MSG Enh. Ratio (compound at 10 μM): 2.8 @
CCOC(=O)CC[C@H](NC(=O)c1ccc(C)c(C)n1)C(=O)OCC [Compound 131, Diethyl (5,6-dimethylpicolinoyl)-L-glutamate] | – | 5.6 @ | –
CCOC(=O)[C@H](CC(C)C)NC(=O)/C=C/c1ccc2c(c1)OCO2 [Compound 162, Ethyl (E)-(3-(benzo[d][1,3]dioxol-5-yl)acryloyl)-L-leucinate] | > 50 | 3.4 @ | –
CCOC(=O)[C@H](Cc1ccccc1)NC(=O)/C=C/c1ccc(OCC)cc1 [Compound 154, Ethyl (E)-(3-(4-ethoxyphenyl)acryloyl)-L-phenylalaninate] | 3 | – | MSG Enh. Ratio (compound at 3 μM): 2.0 @
COC(=O)[C@@H](Cc1ccccc1)NC(=O)c1ccc(C)c(C)c1 [Compound 113, Methyl (3,4-dimethylbenzoyl)-D-phenylalaninate] | 0.3 | – | –
CCC/C=C/C(=O)N[C@@H](Cc1ccccc1)C(=O)OC [Compound 176, Methyl (E)-hex-2-enoyl-L-phenylalaninate] | – | 8.4 @ | –
CCOC(=O)[C@H](Cc1ccc(OC)cc1)NC(=O)c1ccc(C)c(C)c1 [Compound 121, Ethyl (S)-2-(3,4-dimethylbenzamido)-3-(4-methoxyphenyl)propanoate] | 12 | – | MSG Enh. Ratio (compound at 10 μM): 7.0 @
CCOc1ccc(C(=O)N[C@H](CC(C)C)C(=O)OC)cc1 [Compound 109, Methyl (4-ethoxybenzoyl)-D-leucinate] | 0.7 | – | –
COC(=O)[C@@H](NC(=O)c1ccc(OC)c(OC)c1)C(C)C [Compound 124, Methyl (3,4-dimethoxybenzoyl)-L-valinate] | > 50 | 1.8 @ | –
COC(=O)[C@H](CC(C)C)NC(=O)/C=C/c1ccc(OC)cc1 [Compound 149, Methyl (E)-(3-(4-methoxyphenyl)acryloyl)-L-leucinate] | 11 | – | MSG Enh. Ratio (compound at 3 μM): 4.5 @
CCOC(=O)CC[C@H](NC(=O)c1ccc(C(C)C)cc1)C(=O)OCC [Compound 111, Diethyl (4-isopropylbenzoyl)-L-glutamate] | 26 | 4.4 @ | –
CCCCc1ccc(C(=O)N[C@@H](Cc2ccccc2)C(=O)OC)nc1 [Compound 132, Methyl (5-butylpicolinoyl)-L-phenylalaninate] | > 50 | 2.6 @ | –
CCOC(=O)CC[C@H](NC(=O)c1cn(C)c2ccccc12)C(=O)OCC [Compound 134, Diethyl (1-methyl-1H-indole-3-carbonyl)-L-glutamate] | > 50 | 3.8 @ | –
CCC/C=C/C(=O)N[C@@H](Cc1ccccc1)C(=O)OCC [Compound 177, Ethyl (E)-hex-2-enoyl-L-phenylalaninate] | ~40 | 8.8 @ | –
CCOC(=O)CC[C@H](NC(=O)/C=C/c1ccc(O)cc1)C(=O)OCC [Compound 164, Diethyl (E)-(3-(4-hydroxyphenyl)acryloyl)-L-glutamate] | > 50 | 4.2 @ | –
CCOC(=O)[C@H](CC(C)C)NC(=O)c1ccc(C)c(C)c1 [Compound 116, Ethyl (3,4-dimethylbenzoyl)-L-leucinate] | – | – | MSG Enh. Ratio (compound at 3 μM): 3.7 @
CCOC(=O)[C@@H](NC(=O)/C=C/c1ccccc1)C(C)C [Compound 136, Ethyl cinnamoyl-L-valinate] | 23 | – | MSG Enh. Ratio (compound at 10 μM): 5.4 @
COC(=O)[C@H](CC(C)C)NC(=O)c1ccc(C)cc1 [Compound 103, Methyl (4-methylbenzoyl)-L-leucinate] | > 50 | 3.4 @ | –

Compound | EC50 [µM] | MSG Enh. Ratio (compound at 50 μM) | other results
CCC/C=C/C(=O)N[C@H](C(=O)OC)[C@@H](C)CC [Compound 174, Methyl ((E)-hex-2-enoyl)-L-isoleucinate] | 30 | – | MSG Enh. Ratio (compound at 10 μM): 3.6 @
COC(=O)[C@H](Cc1ccccc1)NC(=O)c1ccccn1 [Compound 112, Methyl picolinoyl-L-phenylalaninate] | > 50 | 2.8 @ | –
CCOC(=O)CC[C@H](NC(=O)/C=C/c1ccc2c(c1)OCO2)C(=O)OCC [Compound 161, Diethyl (E)-(3-(benzo[d][1,3]dioxol-5-yl)acryloyl)-L-glutamate] | > 20 | – | MSG Enh. Ratio (compound at 10 μM): 2.9 @
C/C=C/C=C/C(=O)N[C@@H](CC(C)C)C(=O)OCC [Compound 181, Ethyl ((2E,4E)-hexa-2,4-dienoyl)-L-leucinate] | > 50 | 4.5 @ | –
CCOC(=O)[C@H](CC(C)C)NC(=O)/C=C/C(C)C [Compound 169, Ethyl (E)-(4-methylpent-2-enoyl)-L-leucinate] | 12.9 | – | MSG Enh. Ratio (compound at 3 μM): 4.2 @
CCOC(=O)CC[C@H](NC(=O)c1ccc(C)c(C)c1)C(=O)OCC [Compound 122, Diethyl (3,4-dimethylbenzoyl)-L-glutamate] | 2 | – | MSG Enh. Ratio (compound at 3 μM): 4.9 @
CCOC(=O)[C@H](Cc1ccccc1)NC(=O)/C=C/c1ccccc1 [Compound 141, Ethyl cinnamoyl-L-phenylalaninate] | – | – | MSG Enh. Ratio (compound at 10 μM): 5.5 @
COC(=O)[C@H](Cc1ccccc1)NC(=O)c1ccc(C)c(C)c1 [Compound 119, Methyl (3,4-dimethylbenzoyl)-L-phenylalaninate] | 8 | – | MSG Enh. Ratio (compound at 3 μM): 4.6 @
C/C=C/C=C/C(=O)N[C@@H](Cc1ccccc1)C(=O)OCC [Compound 180, Ethyl ((2E,4E)-hexa-2,4-dienoyl)-L-phenylalaninate] | > 50 | 3.4 @ | –
CCOC(=O)C[C@H](NC(=O)/C=C/c1ccccc1)C(=O)OCC [Compound 138, Diethyl cinnamoyl-L-aspartate] | > 50 | 2.0 @ | –
CCC/C=C/C(=O)N[C@H](C(=O)OCC)C(C)C [Compound 175, Ethyl (E)-hex-2-enoyl-L-valinate] | > 50 | 4.4 @ | –
CCOC(=O)[C@@H](CC(C)C)NC(=O)/C=C/C(C)C [Compound 171, Ethyl (E)-(4-methylpent-2-enoyl)-D-leucinate] | 3.34 | – | MSG Enh. Ratio (compound at 3 μM): 8.96 @
CCOC(=O)CC[C@H](NC(=O)c1cc(OC)cc(OC)c1)C(=O)OCC [Compound 126, Diethyl (3,5-dimethoxybenzoyl)-L-glutamate] | – | 5.2 @ | –
CCOC(=O)[C@@H](NC(=O)c1ccc(OC)cc1)C(C)C [Compound 106, Ethyl (4-methoxybenzoyl)-L-valinate] | 36 | 3.6 @ | –
CCOC(=O)[C@@H](NC(=O)/C=C/c1ccccc1)[C@@H](C)CC [Compound 137, Ethyl cinnamoyl-L-isoleucinate] | – | 4.3 @ | –
COC(=O)[C@H](Cc1ccccc1)NC(=O)/C=C/c1ccc(OC)cc1 [Compound 146, Methyl (E)-(3-(4-methoxyphenyl)acryloyl)-L-phenylalaninate] | 1 | – | MSG Enh. Ratio (compound at 0.3 μM): 6.4 @
COC(=O)[C@@H](CC(C)C)NC(=O)/C=C/c1ccc(OC)cc1 [Compound 144, Methyl (E)-(3-(4-methoxyphenyl)acryloyl)-D-leucinate] | 0.1 | – | –
